Results reported in patent US6894068B2, “Substituted benzimidazoles as non-nucleoside inhibitors of reverse transcriptase” (The United States of America as represented by the …, priority 1997, dated 2005).
“Also recorded” adds a separate entry of the source. Like-named read-outs stand apart in the source and are kept apart here.

Key:
HIV-1 isolate V108I = assay: Cytopathic cell killing assay, MT-4 cells, isolate V108I; format: cell-based; settings: Human immunodeficiency virus 1, MT4, read-out: EC50, isolate V108I, Table 10; values in μM
Text: (§1) The various HIV isolates tested in the Figures are those corresponding to wild-type virus (NL4-3) and the other strains listed by their RT mutations. The three 4×AZT isolates included in the Figures represent AZT drug-resistant variants. For example, the 4×AZT/L100I isolate has five mutations: four mutations confer increased resistance to AZT, and the other mutation is located within the NNRTI binding pocket. TZB and nevir. (nevirapine) are two well-known NNRTIs, included in this experiment for comparison purposes.
(§2) In this Example, the antiviral and cellular toxicity of NNRTIs was investigated, using the cytopathic cell killing assay described by Yang (Yang et al., “Characteristics of a Group of Non-nucleoside Reverse Transcriptase Inhibitors with Structural Diversity and Potent Anti-Human Immunodeficiency Virus Activity,” Leukemia 9:S75-S85 [1995]). Briefly, in this method cells (e.g., the CEM-SS cell line, available from the NIAID AIDS Research and Reference Program [ARRRP]) were seeded at a density of 5×10^3 cells/well, into the wells of a 96-well microtiter plate. The cells were then infected with HIV virus (either mutant or WT), at a multiplicity of infection (MOI) previously determined to provide complete cell killing by 6 days of culture post-infection (e.g., MOI of 0.01-0.05). Each of the HIV isolates was pre-titered to induce equivalent levels of infection based on cell killing or virus production, prior to their use in these assays. A range of test compound concentrations was added to the wells in triplicate (e.g., serial half-log dilutions) to evaluate inhibition of HIV infection. Controls for each assay included drug controls (drug colorimetric control wells), drug cytotoxicity control wells (cells with drug), virus control wells (cells with virus), and cell viability controls (cells only). Positive control drugs (e.g. AZT and ddC) were also run in parallel.
(§3) After six days of incubation at 37° C., cell viability was determined spectrophotometrically at 450 nm for each well, using the metabolic reduction of XTT to a soluble colored formazan. (See, Gartner and Popovic, “Virus Isolation and Production, in Aldovini and Walker (eds.), Techniques in HIV Research, Stockton Press, NY, pp. […] [1991]; and Nara and Fischinger, “Quantitative Infectivity Assay for HIV-1 and HIV-2, ” Nature 332:469-470 [1988]).
(§4) The in vitro therapeutic index (TI50) was defined as the fold-difference between the EC50 and IC50. The results for the various compounds are included in FIGS. 8 and 19.

HIV-1 isolate Y188H = assay: Cytopathic cell killing assay, isolate Y188H; format: cell-based; settings: Human immunodeficiency virus 1, read-out: EC50, isolate Y188H
Text: as §1, §2, §3, §4

HIV-1 WT virus (NL4-3) = assay: microbe, parasite or virus in culture; format: cell-based; settings: Human immunodeficiency virus 1, NL43, CEM-SS, read-out: EC50
Method in brief: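 CEM-SS cells (5×10^3/well) infected with HIV-1 NL4-3 at MOI giving complete killing by day 6 (e.g., 0.01-0.05), with half-log compound dilutions in triplicate. After six days at 37° C., viability measured by XTT reduction at 450 nm; CIC50 is 50% inhibitory concentration of cytopathic killing.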

[1] = tested on: WT and HIV-1 variants containing amino acid substitutions in RT; format: cell-based; settings: cytopathic cell killing assay, NNRTI-resistant HIV isolates
Text: In these Tables, antiviral data are reported as the quantity of drug in μM required to reduce cell killing or virus production by 50% (EC50). The various HIV isolates tested in the Figures are those corresponding to wild-type virus (NL4-3) and the other strains listed by their RT mutations. The three 4×AZT isolates included in the Figures represent AZT drug-resistant variants.
Briefly, in this method cells (e.g., the CEM-SS cell line, available from the NIAID AIDS Research and Reference Program [ARRRP]) were seeded at a density of 5×10^3 cells/well, into the wells of a 96-well microtiter plate. The cells were then infected with HIV virus (either mutant or WT), at a multiplicity of infection (MOI) previously determined to provide complete cell killing by 6 days of culture post-infection (e.g., MOI of 0.01-0.05). Each of the HIV isolates was pre-titered to induce equivalent levels of infection based on cell killing or virus production, prior to their use in these assays. A range of test compound concentrations was added to the wells in triplicate (e.g., serial half-log dilutions) to evaluate inhibition of HIV infection. Controls for each assay included drug controls (drug colorimetric control wells), drug cytotoxicity control wells (cells with drug), virus control wells (cells with virus), and cell viability controls (cells only). Positive control drugs (e.g. AZT and ddC) were also run in parallel.
as §3
Antiviral and toxicity data were reported as the quantity of drug required to inhibit 50% of virus-induced cell killing or virus production (EC50), and the quantity of drug required to […] (IC50). The in vitro therapeutic index (TI50) was defined as the fold-difference between the EC50 and IC50.

HIV-1 isolate M184I = assay: Cytopathic cell killing assay, isolate M184I; format: cell-based; settings: Human immunodeficiency virus 1, read-out: EC50, isolate M184I
Text: as §1
(§5) In this Example, the antiviral and cellular toxicity of NNRTIs was investigated, using the cytopathic cell killing assay described by Yang (Yang et al., “Characteristics of a Group of Non-nucleoside Reverse Transcriptase Inhibitors with Structural Diversity and Potent Anti-Human Immunodeficiency Virus Activity,” Leukemia 9:S75-S85 [1995]). Briefly, in this method cells (e.g., the CEM-SS cell line, available from the NIAID AIDS Research and Reference Program [ARRRP]) were seeded at a density of 5×10^3 cells/well, into the wells of a 96-well microtiter plate. The cells were then infected with HIV virus (either mutant or WT), at a multiplicity of infection (MOI) previously determined to provide complete cell killing by 6 days of culture post-infection (e.g., MOI of 0.01-0.05). Each of the HIV isolates was pre-titered to induce equivalent levels of infection based on cell killing or virus production, prior to their use in these assays. A range of test compound concentrations was added to the wells in triplicate (e.g., serial half-log dilutions) to evaluate inhibition of HIV infection. […]
(§6) After six days of incubation at 37° C., cell viability was determined spectrophotometrically at 450 nm for each well, using the metabolic reduction of XTT to a soluble colored formazan. (See, Gartner and Popovic, “Virus Isolation and Production, in Aldovini and Walker (eds.), Techniques in HIV Research, Stockton Press, NY, pp. […] [1991]; and Nara and Fischinger, “Quantitative Infectivity Assay for HIV-1 and HIV-2, ” Nature 332:469-470 [1988]). […]

[2] = tested on: HIV-1 isolate 4xAZT (AZT drug-resistant variant); assay: Cytopathic cell killing assay, MT-4 cells, isolate 4xAZT; format: cell-based; settings: Human immunodeficiency virus 1, MT4, read-out: EC50, isolate 4XAZT
Text: as §1, §5, §6

HIV-1 isolate L100I = assay: Cytopathic cell killing assay, MT-4 cells, isolate L100I; format: cell-based; settings: Human immunodeficiency virus 1, MT4, read-out: EC50, isolate L100I, Table 10; values in μM
Text: as §1, §2, §3, §4

HIV-1 isolate K101E = assay: Cytopathic cell killing assay, MT-4 cells, isolate K101E; format: cell-based; settings: Human immunodeficiency virus 1, MT4, read-out: EC50, isolate K101E, Table 10; values in μM
Text: as §1, §2, §3, §4

HIV-1 isolate A98G = assay: Cytopathic cell killing assay, MT-4 cells, isolate A98G; format: cell-based; settings: Human immunodeficiency virus 1, MT4, read-out: EC50, isolate A98G, Table 8; MT-4 cells
Text: as §1, §2, §3, §4

HIV-1 isolate Y181C = assay: Cytopathic cell killing assay, MT-4 cells, isolate Y181C; format: cell-based
Text: as §1, §2, §3, §4

HIV-1 isolate K103N = assay: Cytopathic cell killing assay, MT-4 cells, isolate K103N; format: cell-based; settings: cytopathic cell killing assay
Text: as §1, §2, §3, §4

With `COc1cccc2c1nc(-c1c(F)cccc1F)n2Cc1c(F)cccc1F` [Compound 5006, 1-(2,6-difluorobenzyl)-2-(2,6-difluorophenyl)-4-methoxylbenzimidazole] the EC50 (HIV-1 isolate V108I) was 2.82 µM, the EC50 (HIV-1 isolate Y188H) was 260 nM and the EC50 (HIV-1 WT virus (NL4-3); Table 7, drug concentration required to reduce cell killing or virus production by 50%, WT) was 4.6 nM. For the same compound, the EC50 (HIV-1 WT virus (NL4-3); Table 11, CEMSS/NL4-3, NRVC = no reduction in viral CPE) was 60 nM, the EC50 (HIV-1 WT virus (NL4-3); text b130, cytopathic cell killing assay, WT) was 4.6 nM and the “cross-resistance profile, result in words” value [1] was “inhibit HIV-1 better than TZB; also recorded: equal or better against the various variants than nevirapine”. For the same compound, the “cross-resistance profile, result in words” value ([1]; listed as 44) was “retained the best activity against the different RT variants; also recorded: retains activity comparable with nevirapine”, the EC50 (HIV-1 isolate M184I) was 160 nM and the EC50 [2] was 600 nM. The EC50 (HIV-1 isolate L100I) was 0.16 µM, the EC50 (HIV-1 isolate K101E) was 2.82 µM and the EC50 (HIV-1 isolate A98G) was 300 nM. The EC50 (HIV-1 isolate Y181C; Human immunodeficiency virus 1, MT4, read-out: EC50, isolate Y181C, Table 10, values in μM) was 0.26 µM, the “activity against Y181C, result in words” value (HIV-1 isolate Y181C; cytopathic cell killing assay) was “maintaining activity” and the “activity against K103N, result in words” value (HIV-1 isolate K103N) was “failed to show any activity”. It also gave a melting point of 154 to 155 °C.
